The subject of one experiment is OC-1 cells. Description: Seahorse bioenergetics experiment (oxygen consumption rate) after cisplatin. It counts as cell-based. The procedure:
Mitochondrial function was analysed by measuring oxygen consumption rate (OCR) using real-time Seahorse Flux Analyser XF 96 (Seahorse Bioscience, USA) with our well-established method (Kovacevic, Bozica, et al. “Novel hydrogel comprising non-ionic copolymer with various concentrations of pharmacologically active bile acids for cellular injectable gel.” Colloids and Surfaces B: Biointerfaces (2022): 113014). Briefly, the first injection was with media without glucose, with subsequent ATP synthase inhibitor oligomycin and FCCP (carbonyl cyanide-p-trifluoromethoxy phenylhydrazone) and the final injection was complex […] inhibitors Rotenone+antimycin A 77. The result was automatically generated and analysed by the wave software. The OC-1 cells were pre-treated with cisplatin at three different concentrations (20, 30 and 40 μM) for 24 or 48 hours to induce cytotoxicity prior to the seahorse bioenergetics assays.

The subject of the next experiment is Caspase 3/9 protein. Description: Caspase assay. The format is cell-based. The settings on record: OC-1 cells under stressful, toxic conditions (FIG. 31). The procedure: The caspase assay was carried as per manufacturer's instructions (abcam, NSW, Australia), as described below.
• Collagen coated cover slip • Fixing agent: 4% paraformaldehyde • Permeabilization agent 0.5% of Tween 20 or trition-X 100 diluted in PBS • Blocking: 1% BSA in PBST may also be used. • PBST: 0.1% Tween 20 in PBS • Primary abs (1:500 in PBS) • Secondary abs (1:1000 in PBS) • Hoechst (Nuclear stain)
First day: Fixation, permeabilize, blocking and add a primary antibody to the cells, as described below:
• Start by aspirating culture medium from each well followed by fixation of the cells with 4% Using 4% paraformaldehyde in PBS pH 7.4 for 10 min at room temperature. (Add one ml in each well). • Shake a plate for a few seconds.
0.5% of Tween 20 or trition-X 100 diluted in PBS. […]
• Make coverslips ready to be mounted onto microscope slides. • Take a clean slide and dispense one drop of antifade mounting medium by slowly from the pipette into the slide. • Carefully remove a coverslip from the well and allow excess wash to drip off and place the cells face down onto the slide. • Clear fingernail polish can be used to seal the coverslip and prevent it from drying out. • Visualized slide under microscope. […]

On to `CC(=O)O[C@@H]1CC[C@@]2(C)[C@H](CC[C@@H]3[C@@H]2CC[C@]2(C)[C@@H]([C@H](C)CCC(=O)Oc4c(C(C)(C)C)cc(SC(C)(C)Sc5cc(C(C)(C)C)c(O)c(C(C)(C)C)c5)cc4C(C)(C)C)CC[C@@H]32)C1` [HA-1, 2,6-di-tert-butyl-4-((2-((3,5-di-tert-butyl-4-hydroxyphenyl)thio)propan-2-yl)thio)phenyl (4R)-4-[(3R,5R,8R,9S,10S,13R,14S,17R)-3-acetoxy-10,13-dimethyl-2,3,4,5,6,7,8,9,11,12,14,15,16,17-tetradecahydro-1H-cyclopenta[a]phenanthren-17-yl]pentanoate], for which the “oxygen consumption rate (OCR)” value in the experiment on OC-1 cells (OC-1 cells after 24 hours exposure to cisplatin (20, 30 and 40 μM)) is “significant and profound otoprotective effects”; with OC-1 cells (OC-1 cells after 48 hours exposure to cisplatin (20, 30 and 40 μM)), “significantly reverse the cytotoxic effects of cisplatin”. In the experiment with Caspase 3/9 protein, the “protection against programmed cell death (caspase-3 activation) / viable cell population” value is “significant protection against programmed cell death”.

The values are drawn from patent US20240374739A1, “BILE ACID CONJUGATE” (Curtin University, priority 2021, published 2024).
